The target of assay [1] is T1, acid ceramidase (AC) (Homo sapiens, UniProt Q13510).
T1 sequence (Q13510 143-395 limits assumed): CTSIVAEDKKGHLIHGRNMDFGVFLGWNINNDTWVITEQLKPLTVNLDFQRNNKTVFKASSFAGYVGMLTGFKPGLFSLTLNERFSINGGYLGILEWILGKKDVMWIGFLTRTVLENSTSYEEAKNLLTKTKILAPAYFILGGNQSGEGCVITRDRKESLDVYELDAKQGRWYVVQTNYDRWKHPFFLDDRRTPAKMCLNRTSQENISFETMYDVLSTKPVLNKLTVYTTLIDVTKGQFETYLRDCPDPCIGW
T1 sequence (Q13510 22-142 limits assumed): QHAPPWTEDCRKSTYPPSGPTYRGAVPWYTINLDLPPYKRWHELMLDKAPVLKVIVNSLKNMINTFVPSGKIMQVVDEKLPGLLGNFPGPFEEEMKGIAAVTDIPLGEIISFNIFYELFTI
Description: AC activity by flow cytometry with RBM5-177/CO-1 in intact cells. Also noted: expressed in transfected cells; host or cells: A375/+Dox and FD/AC (overexpressing AC); A375/-Dox and A549 (endogenous AC). The format is cell-based. The procedure: Cells were seeded at 1 × 10^5 cells/mL into 6 well plates (1 mL/well) and were allowed to adhere for 24 h. Medium was replaced with fresh medium containing Soclac (5 µM final concentration) and incubated for 1 h. After this time, the medium was replaced with RBM5-177, RBM5-019 or RBM2-37 (5 µM final concentration) +/- Soclac and incubated for 20 min. In the experiments with DM120, the compound, Soclac and RBM5-177 were incubated together for 4 h. After probes incubation, the medium was replaced with fresh medium containing CO-1 (1 µM final concentration), and cells were incubated for 10 min. Then cells were washed 3 times with DMEM for 5 min at 37 °C, and finally washed with 400 µL PBS and harvested with 400 µL Trypsin-EDTA and 600 µL of medium. Pellets were resuspended with 200 µL of PBS and stained cells were analyzed by using a Guava EasyCyte™ flow cytometer (Merck Millipore, Billerica, MA) measuring green fluorescence (488/525 nm). Data analysis was performed using the Multicycle AV program (Phoenix Flow Systems, San Diego, CA).
Background: A flow cytometer gives signals particle by particle.

The subject of another assay is mitochondria. Description: Confocal co-localization of probe/CO-1 staining with Mitotracker. To be noted: A375/+Dox, RBM5-177 probe, FB1 100 µM 24 h or SOCLAC 5 µM 1 h, independent treatments. The class given is cell-based. The procedure: Cells were seeded at 1 × 10^5 cells/mL on glass-bottom plates and allowed to adhere for 24 h. For golgi staining, cells were incubated with 40 µL/well of CellLight Golgi-RFP BacMam 2.0 for 24 h. Medium was replaced with fresh medium containing RBM5-177, RBM5-019, RBM2-37 or RBM2-31 (5 µM final concentration) and cells were incubated for 20 min at 37 °C. After this time, the medium was replaced with fresh medium containing CO-1 (1 µM final concentration), and cells were incubated for 10 min. Then cells were washed 3 times with DMEM for 5 min at 37 °C, 75 nM LysoTracker Red DND-99 or 75 nM Mitotracker in phenol red-free DMEM was added to stain lysosomes or mitochondria, and cells were kept in the incubator for microscope analysis. Staining was viewed with a Zeiss LSM 880 confocal microscope or Leica TCS SP8-Hyvolution. Image analysis was performed using Fiji software.^[7] To measure the Manders's and Pearson's coefficients a threshold including organelles and discarding the background was set. Co-localization coefficients were measured using the JaCoP plugin (S. Bolte et al. J. Microsc. 2006, 224, 213-232) on the different stacks of images (at least n=4) with each stack containing 3-10 cells.

Assay [2] addresses T1, acid ceramidase (AC). The experiment in a line: Hydrolysis of RBM5-177 by lysates of AC overexpressing cells, UPLC-HRMS. To be noted: lysates from A375/+Dox cells, 30 min. The class given is biochemical. Also noted: expressed in transfected cells; host or cells: A375/+Dox (overexpressing AC). The procedure:
Cells were suspended in the appropriate volume of a 0.25 M saccharose solution with the proteases inhibitors aprotinin (1 mg/ml), leupeptin (1 mg/mml) and PMSF (100 mM). The suspension was submitted to three cycles of a 5 s sonication (probe) at 10 watts/5 s resting on ice. The cell lysate was centrifuged at 600 g for 5 min. The supernatant was collected and protein concentration was determined as specified below.
Cells were seeded at 5 × 10^5 cells/mL into 6 well plates (1 mL/well) and were allowed to adhere for 24 h. Medium was replaced with fresh medium containing RBM5-177, RBM5-019 or RBM2-37 (5 µM final concentration). After 30 min, medium was removed; cells were washed with 400 µL PBS and harvested with 400 µL Trypsin-EDTA and 600 µL of medium. NC recombinant enzyme, […], MEF5 or microsomes from HeLa T-Rex ACER1-TET-ON and HeLa T-Rex […] activity buffer. Cell pellets were resuspended with 100 µL of H2O and mixed with 750 µL of methanol: chloroform, 2:1. Samples were heated at 48°C overnight and next day, 75 µL of 1 M KOH in methanol were added, followed by 2 h incubation at 37°C. Afterwards, the saponification was neutralised with 75 µL of 1 M acetic acid and solvent was removed using a Speed Vac Savant SPD131 DDA (Thermo Scientific). […]

The structures appear in SMILES notation.

`CCCCCCCCCCCCC/C=C/[C@@H](O)[C@H](CO)NC(=O)CCl` [SOCLAC]: the “effect on number of fluorescent counts” value at acid ceramidase (AC) [1] (A375 cells, SOCLAC 5 µM 1 h pre-incubation (Fig. 5A, 5D)) was “significantly decreased”. The “effect on number of labelled cells” value at acid ceramidase (AC) [1] (A549 cell line, SOCLAC 5 µM 1 h (Fig. 5B, 5E)) is “significantly decreasing the number of labelled cells”; at acid ceramidase (AC) [1] (FD/AC cells, SOCLAC 5 µM 1 h preincubation (Fig. 5C)) it was “reduced down to FD levels”. Also, the “effect on mitochondria labelling” value in the assay on mitochondria is recorded as “mitochondria labelling was precluded”. Further, the “inhibition of the formation of RBM5-19 from RBM5-177” value at acid ceramidase (AC) [2] (SOCLAC 5 µM, 1 h, then RBM5-177 5 µM) was “totally prevented the formation of RBM5-19 from RBM5-177”.
Turning to `CCCCCCCC(=O)N[C@@H](C)[C@H](O)CCCCCCCCCCCCN=[N+]=[N-]` [RBM5-177, N-((2S,3R)-15-azido-3-hydroxypentadecan-2-yl)octanamide], on acid ceramidase (AC) [1] (FD/AC cells versus AC deficient FD cells, RBM5-177 5 µM 4 h, CO-1), the “increase in the number of fluorescent counts over FD” value came to 7 fold. Also, the “RBM5-19 formation (hydrolysis as substrate)” value on acid ceramidase (AC) [2] (RBM5-177 5 µM) was “transformed into the free amine only by AC”.

The record behind these values is EP3925949A1, “AZIDO COMPOUNDS AND METHOD FOR MONITORING ACID CERAMIDASE ACTIVITY IN INTACT CELLS USING THEM” (Consejo Superior de Investigaciones Científicas (CSIC), priority 2020, dated 2021).
